Reference: patent US20220218664A1, “DRUG AND METHOD FOR TREATING OR PREVENTING COMPLICATIONS FROM DIABETES, USING SAID DRUG” (TMS Co., Ltd., priority 2019, published 2022)
“And” between values parts separate entries of the source, which are not always exact repeats. Identical values can stand only once.

Columns and labels:
Assay type in all cases: in vivo, C57BL/6J male mice
[1] = Body weight (BW) in streptozotocin-induced diabetic mice; settings: 30 mg/kg i.p. once a day
Method: (§1) 9-week-old C57BL/6J male mice were purchased and familiarized with an animal facility for 1 week. 200 mg/kg of streptozotocin (streptozotocin; STZ) was administered […] into the peritoneal cavity of 10-week-old mice to prepare streptozotocin-induced diabetic mice (hereinafter also referred to as “STZ administration week 0”). One week after the administration of streptozotocin, blood was collected from the tail vein of the mice, and the blood glucose level (BS) was measured using an automatic blood glucose measuring device (product name: Medisafe (trademark) Mini GR-102, made by Terumo (Co)). Mice having a blood glucose level of 400 mg/dL or more were determined to be diabetic mice.
(§2) The SMTP-44D groups, the edaravone group, and the pregabalin group were administered SMTP-44D (0.3 mg/kg, 3 mg/kg, or 30 mg/kg doses, respectively), edaravone (10 mg/kg dose), or pregabalin (10 mg/kg dose) into the peritoneal cavity once a day for 3 consecutive weeks from the day following the first week to the fourth week after STZ administration.
For the above-mentioned STZ group, SMTP-44D groups, edaravone group, pregabalin group, and control group mice, the following measurements were conducted every week from the 0th week, which began on the day when streptozotocin (STZ) was administered, to the 4th week (that is, a total of five times). As algesia tests, the following von Frey test and hot plate test were conducted, and hind plantar blood flow, body weight (BW), and blood glucose level (BS) were measured using the above-mentioned automatic blood glucose measure device. Note, for example, the 0th week represents the 0th day. That is, the measurements were conducted on the 0th, 7th, 14th, 21st, and 28th days.

[2] = system: streptozotocin-induced diabetic mice; assay: Von Frey test: evaluating mechanical stimulus
Method: as §1, §2
The above-mentioned STZ group, SMTP-44D groups, edaravone group, pregabalin group, and control group mice were put in grid-like boxes, respectively, and were familiarized for one hour. After the familiarization, by using a Dynamic Plantar Aesthesiometer (tactometer) (manufactured by UGO BASILE Inc.), 1 g/s (that, pressurization increased by 1 g per second) of stimulation was imparted to the hind legs of these mice to measure mechanical thresholds (g) from the start of stimulation to the time when the mice withdrew their legs. The measurements were conducted for both hind legs three times at intervals of three minutes or longer, respectively. A mean value of three mechanical thresholds (g) was calculated for 1 mouse, and then a mean value of the 12 mice for the respective groups was found.

[3] = system: streptozotocin-induced diabetic mice; assay: Hot plate test: evaluating thermal stimulus
Method: as §1, §2
The above-mentioned STZ group, SMTP-44D groups, edaravone group, pregabalin group, and control group mice were put in grid-like boxes, respectively, and were left for 30 minutes. After having been left, an acrylic disc (diameter: 20 cm; height (that is, thickness of the acrylic disc): […]) was placed on an EC hot plate (model number: EC1200) maintained at 49 to 50° C., and the mice were put on the acrylic disc. The measurements were started after the mice landed on the EC hot plate. The times from the mice landing to their action to jump or lick their hind legs were evaluated as thermal thresholds (seconds: s). Note, to avoid burns on their plantae, the measurements were ceased 30 seconds after beginning. The measurements were conducted three times at 30-minute intervals. A mean value of three thermal thresholds (seconds: s) was calculated for 1 mouse, and then a mean value of the 12 mice for the respective groups was found.

[4] = system: streptozotocin-induced diabetic mice; assay: Sciatic nerve blood flow; settings: 4th week
Method: as §1, §2
(§3) Sciatic nerves of the above-mentioned STZ group, SMTP-44D groups, edaravone group, pregabalin group, and control group mice on the 4th week were exposed under isoflurane anesthesia, and then, using the full-field laser perfusion imager, their sciatic nerve blood flows (perfusion unit: PU) were measured. After the sciatic nerve blood flows were measured, a voltage was output from a PowerLab through the […] to impart an electrical stimulus to the sciatic nerves using needle electrodes. The electrical stimulus went through the Analog Stimulus Isolator via recording electrodes attached to the gastrocnemius and was input into the PowerLab, and thus neuromuscular function response curves were measured. The sciatic nerves were stimulated between two points at 8-mm intervals. The sciatic nerve conduction velocity (m/s) was calculated by dividing the […]. The sciatic nerve blood flow and sciatic nerve conduction velocity were measured using a Hot-1 small-sized heating controller and small-sized body temperature retention device (model number: […]-1), maintaining the rectal temperature at 37° C. The measurement results are described in Table 11.

[5] = system: streptozotocin-induced diabetic mice; assay: Sciatic nerve conduction velocity; settings: 4th week
Method: as §1, §2, §3

[6] = system: IL-6; assay: Inflammatory cytokine IL-6 in sciatic nerve (ELISA); settings: 30 mg/kg i.p. once a day, 4th week
Method: as §1, §2
The sciatic nerves of the above-mentioned STZ group, SMTP-44D group (30 mg/kg), edaravone group, pregabalin group, and control group mice on the 4th week were homogenized using the RIPA buffer containing a protease inhibitor cocktail. Moreover, centrifugation was conducted at 4° C. for 15 minutes at 10,000 g, and the supernatant was collected and used for measuring TNF-α concentration (pg/mL), IL-1β concentration (pg/mL), IL-6 concentration (pg/mL), and total protein concentration (μg/mL), respectively. An ELISA assay kit was used for the TNF-α, IL-1β, and IL-6 concentrations. The total protein concentration was measured by using a Pierce (trademark) BCA Protein Assay Kit. The inflammatory cytokine level (pg/mg protein) in the total protein was calculated from the TNF-α concentration (pg/mL), IL-1β concentration (pg/mL), and IL-6 concentration (pg/mL), and total protein concentration (μg/mL).

[7] = 0.3 mg/kg i.p. once a day, 0th week (before dosing)
[8] = 0.3 mg/kg i.p. once a day, 1st week (before dosing)
[9] = 0.3 mg/kg i.p. once a day, 2nd week
[10] = 0.3 mg/kg i.p. once a day, 3rd week
[11] = 0.3 mg/kg i.p. once a day, 4th week
[12] = 3 mg/kg i.p. once a day, 0th week (before dosing)
[13] = 3 mg/kg i.p. once a day, 1st week (before dosing)
[14] = 3 mg/kg i.p. once a day, 2nd week
[15] = 3 mg/kg i.p. once a day, 3rd week
[16] = 3 mg/kg i.p. once a day, 4th week
[17] = 30 mg/kg i.p. once a day, 0th week (before dosing)
[18] = 30 mg/kg i.p. once a day, 1st week (before dosing)
[19] = 30 mg/kg i.p. once a day, 2nd week
[20] = 30 mg/kg i.p. once a day, 3rd week
[21] = 30 mg/kg i.p. once a day, 4th week

With `CC(C)=CCCC(C)=CCCC1(C)Oc2c(c(O)cc3c2CN(C(C(=O)O)c2ccc(O)cc2)C3=O)CC1O` (stereo not drawn) [SMTP-44D] the “Body weight decrease between the 0th week and 4th week” value [1] was 1.5 g, the “BW (body weight)” value ([1]; 0th week (before dosing)) was 23.0 ± 0.4 g and the “BW (body weight)” value ([1]; 1st week (before dosing)) was 21.7 ± 0.5 g. For the same compound, the “BW (body weight)” value ([1]; 3rd week) was 21.3 ± 0.6 g, the “BW (body weight)” value ([1]; 4th week) was 21.5 ± 0.5 g and the “von Frey test mechanical threshold” value [2, 7] was 5.2 ± 0.1 g. For the same compound, the “von Frey test mechanical threshold” value [2, 8] was 4.1 ± 0.1 g, the “von Frey test mechanical threshold” value [2, 9] was 3.5 ± 0.2 g and the “von Frey test mechanical threshold” value [2, 10] was 3.7 ± 0.1 g. The “von Frey test mechanical threshold” value [2, 11] was 3.6 ± 0.2 g, the “von Frey test mechanical threshold” value [2, 12] was 4.9 ± 0.2 g and the “von Frey test mechanical threshold” value [2, 13] was 4.2 ± 0.1 g. For the same compound, the “von Frey test mechanical threshold” value [2, 14] was 4.0±0.1 g and 4.0 ± 0.1 ##− g, the “von Frey test mechanical threshold” value [2, 15] was 3.9 ± 0.2 g and the “von Frey test mechanical threshold” value [2, 16] was 4.0 ± 0.1 g. For the same compound, the “von Frey test mechanical threshold” value [2, 17] was 4.9 ± 0.1 g, the “von Frey test mechanical threshold” value [2, 18] was 3.9 ± 0.2 g and the “von Frey test mechanical threshold” value [2, 19] was 5.4 ± 0.1 g. The “von Frey test mechanical threshold” value [2, 20] was 5.3 ± 0.1 g, the “von Frey test mechanical threshold” value [2, 21] was 5.2 ± 0.1 g and the “Hot plate test thermal threshold” value [3, 7] was 22.8 ± 1.2 s. The “Hot plate test thermal threshold” value [3, 8] was 14.3 ± 1.0 s, the “Hot plate test thermal threshold” value [3, 9] was 14.0 ± 1.4 s and the “Hot plate test thermal threshold” value [3, 10] was 13.3 ± 1.3 s. The “Hot plate test thermal threshold” value [3, 11] was 13.1 ± 0.6 s, the “Hot plate test thermal threshold” value [3, 12] was 21.0 ± 1.3 s and the “Hot plate test thermal threshold” value [3, 13] was 14.6 ± 1.4 s. The “Hot plate test thermal threshold” value [3, 14] was 15.4 ± 0.8 s, the “Hot plate test thermal threshold” value [3, 15] was 15.1 ± 1.1 s and the “Hot plate test thermal threshold” value [3, 16] was 15.1 ± 1.3 s. The “Hot plate test thermal threshold” value [3, 17] was 21.3 ± 0.4 s, the “Hot plate test thermal threshold” value [3, 18] was 15.0 ± 0.7 s and the “Hot plate test thermal threshold” value [3, 19] was 18.0 ± 1.2 s. The “Hot plate test thermal threshold” value [3, 20] was 18.4 ± 1.3 s, the “Hot plate test thermal threshold” value [3, 21] was 18.2 ± 1.1 s and the “Sciatic nerve blood flow” value ([4]; 0.3 mg/kg i.p. once a day) was 1116.9±30.4 PU. For the same compound, the “Sciatic nerve blood flow” value ([4]; 3 mg/kg i.p. once a day) was 1187.1±31.4 PU, the “Sciatic nerve blood flow” value ([4]; 30 mg/kg i.p. once a day) was 1461.0±55.0 PU and the “Sciatic nerve conduction velocity” value ([5]; 0.3 mg/kg i.p. once a day) was 54.9±1.2 m/s. For the same compound, the “Sciatic nerve conduction velocity” value ([5]; 3 mg/kg i.p. once a day) was 56.9±2.8 m/s and 56.9 ± 28 m/s, the “Sciatic nerve conduction velocity” value ([5]; 30 mg/kg i.p. once a day) was 63.8±2.0 m/s and the IL-6 [6] was 143.41±8.08 pg/mg protein.
